{"source": "paper PMC3048208", "about": "(British Journal of Cancer, 2011)", "test_system": "advanced solid tumours", "assay": "Anti-tumour activity (RECIST 1.0)", "format": "in vivo, human", "conditions": "for Period of disease stabilisation: colorectal carcinoma patient", "description": "For patients with measurable disease at baseline, response was assessed using the Response and Evaluation Criteria in Solid Tumours version 1.0 ([Therasse et al, 2000]).", "note": "Counter-ions that a name gives are not always drawn.", "data": [{"smiles": "CCCCc1nc2cc(/C=C/C(=O)NO)ccc2n1CCN(CC)CC", "note": "[SB939, 3-[2-butyl-1-(2-diethylaminoethyl)-1H-benzoimidazol-5-yl]-N-hydroxyacrylami-hydrochloride]", "values": [{"measurement": "Objective tumour responses", "setting": "31 evaluable patients", "result": "No objective tumour responses"}, {"measurement": "Period of disease stabilisation", "setting": "dose level 2", "result": 8.1, "unit": "months"}, {"measurement": "Period of disease stabilisation", "setting": "dose level 3", "result": 10.8, "unit": "months"}, {"measurement": "Period of disease stabilisation", "setting": "dose level 4", "result": 7.4, "unit": "months"}, {"measurement": "Disease stabilisation of >6 months, no. of patients", "setting": "metastatic colorectal carcinoma", "result": "Three"}, {"measurement": "Best response stable disease", "setting": "of the 31 evaluable", "result": 32, "unit": "%"}, {"measurement": "Best response stable disease, no. of patients", "setting": "of the 31 evaluable", "result": "Ten"}, {"measurement": "Disease progression", "setting": "of the 31 evaluable", "result": 68, "unit": "%"}, {"measurement": "Disease progression, no. of patients", "setting": "of the 31 evaluable", "result": 21}, {"measurement": "Median duration of disease control", "setting": "patients with SD", "result": 5.7, "unit": "months"}, {"measurement": "Range of duration of disease control", "setting": "patients with SD", "result": "1.8–10.8 months"}]}]}
